{"source": "patent US20250084040A1", "about": "“SUBSTITUTED HETEROCYCLES AS c-MYC TARGETING AGENTS” (Northwestern University, priority 2018, published 2025)", "key": {"[1]": {"system": "MYC transcriptional activity", "assay": "MYC E-Box luciferase reporter assay", "assay_type": "cell-based", "settings": "MycCap Ebox-luc, 4 hours of treatment", "method": "To test the compounds, we evaluated the in silico hits in a MYC E-Box luciferase reporter assay to measure the effects of these compounds (referred to as Min-1 to Min-32) on MYC transcriptional activity. […] (See FIG. 2).\nMyc Ebox luciferase reporter assay (FIG. 12). MycCap cells stably expressing luciferase with CMV promoter (MycCap-luc) or c-Myc E-box-luciferase reporter (MycCap Ebox-luc) were plated at 10000 cells per well in 96 well white-wall plate. Serial dilutions of 361 were treated next day. At 4 hours of treatment, luminescence signal was determined immediately after adding 150 μg/ml of Luciferin to the well. (See FIG. 12)."}, "[2]": {"system": "PC3 prostate cancer cell line", "assay": "Proliferation assay (MTS), PC3 prostate cancer cell line", "assay_type": "cell-based", "settings": "day 5", "method": "(§1) Proliferation Assay (FIG. 11). PC3 prostate cancer cell line with high Myc level and PC12 pheochromocytoma tumor cell line with non functional Max protein, which is not dependent on Myc-Max complex, were phased from ATCC. Cells were plated in 96 well plate at 1000 cells per well, and Myc inhibitor 361 at various concentrations was added to the cells next day. After 3 days of treatment, fresh medium with 361 were added again, and cell viability was measured by MTS assay at day 5 after the treatment. (See FIG. 11)."}, "MycCap tumor [3]": {"system": "MycCap tumor", "assay": "MycCap FVB allograft model", "assay_type": "in vivo", "settings": "mouse prostate cancer allograft model, intra-peritoneally", "method": "MycCap FVB allograft model (FIG. 15). FVB mice were inoculated with 1×10^6 of MycCap cells in 100 ul of matrigel subcutaneously on both flanks of the mice. When tumor size reached average size of 150 mm^3, mice were randomized based on tumor volume to 2 groups. Mice were administered with 50 mg/kg of 361 or vehicle (Veh) twice daily intra-peritoneally for two days. The treatment was suspended for 10 day, and initiated the treatment with a lower dose […] daily for another 9 days. Tumor size was measured twice a week during the experiment. (See FIG. 15)."}, "MycCap tumor [4]": {"system": "MycCap tumor", "assay": "MycCap FVB allograft model, combination with anti-PD-1 immunotherapy", "assay_type": "in vivo, mouse", "settings": "combination with Immunotherapy (anti-PD-1 antibody)", "method": "Myc inhibitor 361 combination with Immunotherapy (FIG. 16). MycCap FVB allograft model was treated with 361 (50 mg/kg) for two days, following by two days of anti-PD-1 antibody (100 ug/day), and kept this 4-day treatment cycle for 4 cycles. (See FIG. 16)."}, "MYC/Max binding to DNA": {"molecular_target": "MYC/Max binding to DNA (Homo sapiens, UniProt P01106)", "sequence (P01106 whole entry)": "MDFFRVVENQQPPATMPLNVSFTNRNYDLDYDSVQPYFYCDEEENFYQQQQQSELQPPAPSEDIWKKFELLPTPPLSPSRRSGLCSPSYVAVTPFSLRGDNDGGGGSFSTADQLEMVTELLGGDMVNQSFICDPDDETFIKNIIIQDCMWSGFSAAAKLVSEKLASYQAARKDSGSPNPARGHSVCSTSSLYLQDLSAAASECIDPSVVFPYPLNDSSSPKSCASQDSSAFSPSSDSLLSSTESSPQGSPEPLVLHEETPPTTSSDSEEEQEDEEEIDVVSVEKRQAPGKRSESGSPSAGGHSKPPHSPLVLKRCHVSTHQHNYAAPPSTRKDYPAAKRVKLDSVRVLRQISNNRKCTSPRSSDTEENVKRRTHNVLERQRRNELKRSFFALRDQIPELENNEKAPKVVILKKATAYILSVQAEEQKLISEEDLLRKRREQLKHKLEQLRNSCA", "assay": "Electrophoretic mobility shift assay (EMSA), MYC/Max binding to DNA", "method": "We also tested our best hit compound Min9 (NUCC-0176234) and newly synthesized analogs for effects of these compounds on MYC/Max binding to DNA in electrophoretic mobility shift assays (EMSAs). (See FIG. 5a and FIG. 5b). We expected the active compounds to impair MYC/Max binding to DNA. Several strucutural analogs of Min9 were tested over multiple doses for inhibiting MYC-DNA binding and we observed a dose-dependent inhibition. (See FIG. 5c)."}, "[5]": {"system": "cMYC wild-type (WT) and cMYC KO line", "assay": "Cell viability, cMYC wild-type (WT) versus cMYC KO line", "assay_type": "cell-based", "settings": "cMYC WT vs cMYC KO line", "method": "Min9 (NUCC-0176234) was also tested in a cell viability assay against a cMYC wild-type (WT) and a cMYC KO line."}, "DNA damage": {"system": "DNA damage", "assay": "rH2AX staining assay for DNA damage", "assay_type": "cell-based", "method": "Min9 (NUCC-0176234) was also tested for its ability to cause DNA damage in an rH2AX staining assay. We would not expect cMYC-targeting agents to produce significant DNA damage. Compounds that act directly against DNA such as doxorubicin do however. […] (See FIG. 6)."}, "[6]": {"system": "wild type and MYC knockout rat fibroblasts", "assay": "Growth inhibition of MYC wild type versus MYC knockout rat fibroblasts", "assay_type": "cell-based", "text": "We tested the top 13 active compounds in the first screen assay. […] More than half of the tested compounds show better growth inhibitory effect on MYC WT compared to MYC KO cells."}, "[7]": {"assay": "In vitro metabolism, mouse S9 fraction", "assay_type": "in vitro ADME", "method": "In vitro metabolism of NUCC-176242 and NUCC-176248 were tested using mouse liver microsomes and a mouse S9 fraction. (See FIG. 9)."}, "MycCap cells": {"system": "MycCap cells", "assay": "Cell viability of MycCap cells", "assay_type": "cell-based"}, "PC12 cells": {"system": "PC12 cells", "assay": "Cell viability / proliferation of PC12 cells (Myc independent)", "assay_type": "cell-based", "method": "as §1"}, "MV411 cells": {"system": "MV411 cells", "assay": "AML xenograft model (MV411), combination with Ara-C", "assay_type": "in vivo, mouse", "settings": "AML mice xenograft model", "method": "Myc inhibitor combination treatment with Ara-C in AML xenograft model (FIG. 17). CB17 SCID mice were inoculated with MV411 cells at the density of 5×10^6 suspended in PBS and matrigel (1:1). The mice were randomized based on tumor volume into 6 different groups after the tumor reached ˜200 to 500 mm^3. The mice were treated either with vehicle, NUO31, NU975 alone or in combination with cytarabine (Ara-C). […] (See FIG. 17)."}}, "data": [{"smiles": "Cn1nc(C(F)(F)F)cc1-c1ccc(OCc2ccc(Cl)cc2)c(-c2cc(C(F)(F)F)cc(C(F)(F)F)c2)c1O", "note": "[compound 361]", "values": [{"measurement": "c-Myc transcription activity", "setting": "[1]", "result": "inhibits c-Myc transcription activity as an early event before affecting cell viability"}, {"measurement": "proliferation of Myc dependent cell line PC3", "setting": "[2]", "result": "specifically inhibits proliferation"}, {"measurement": "tumor volume", "setting": "MycCap tumor [3]", "result": "reduces tumor volume"}, {"measurement": "tumor progression", "setting": "MycCap tumor [4]", "result": "significantly blocks tumor progression"}]}, {"smiles": "CCc1ccc(Oc2c[nH]nc2-c2ccc(OCc3cnn(-c4ccccc4)c3)cc2O)cc1", "note": "[NUCC-0176234]", "values": [{"measurement": "inhibition of MYC/Max binding to DNA (in words)", "setting": "MYC/Max binding to DNA", "result": "prevent c-MYC/DNA binding"}, {"measurement": "cell viability, WT line versus KO cells", "setting": "[5]", "result": "reduces cell viability much more in the WT line than the KO cells"}, {"measurement": "DNA damage", "setting": "DNA damage", "result": "essentially no DNA damage"}]}, {"smiles": "CCc1ccc(Oc2c(-c3ccc(OCc4ccc(Cl)cc4)cc3O)nn(C)c2C(F)(F)F)cc1", "note": "[NUCC-0176248]", "values": [{"measurement": "selectivity of growth inhibition, MYC WT compared to MYC KO cells", "setting": "[6]", "result": "high specificity"}]}, {"smiles": "CCc1ccc(Oc2c(-c3ccc(OCc4ccc(Cl)cc4)cc3O)n[nH]c2C(F)(F)F)cc1", "note": "[NUCC-0176242]", "values": [{"measurement": "metabolism by mouse S9 fraction", "setting": "[7]", "result": "significantly metabolism by the mouse S9 fraction versus NUCC-176248"}]}, {"smiles": "CNC(=O)c1cc(-c2ccc(OCc3ccc(Cl)cc3)c(-c3cc(C(F)(F)F)cc(C(F)(F)F)c3)c2O)nn1C", "note": "[NUCC-0201224]", "values": [{"measurement": "IC50", "setting": "MycCap cells", "result": 1.1, "unit": "µM"}, {"measurement": "IC50", "setting": "PC12 cells", "result": 11.6, "unit": "µM"}]}, {"smiles": "CCCCOc1ccc(-c2cc(C(F)(F)F)n[nH]2)c(O)c1-c1cc(C(F)(F)F)cc(C(F)(F)F)c1", "note": "[compound 031]", "values": [{"measurement": "anti-tumor effect with Ara-C", "setting": "MV411 cells", "result": "significant synergic anti-tumor effect"}]}, {"smiles": "Cn1nc(C(F)(F)F)cc1-c1ccc(OCc2ccc(Cl)cc2)c(-c2ccc(Cl)c(C(F)(F)F)c2)c1O", "note": "[compound 975]", "values": [{"measurement": "anti-tumor effect with Ara-C", "setting": "MV411 cells", "result": "significant synergic anti-tumor effect"}]}]}
